Assay results: PubChem BioAssay AID2060483 (Molecular Pharmacology Branch, DTP, NCI, 2025)

Tested on: K24384-001-R-PDC complex spheroids, viability
Assay: Anticancer human tumor K24384-001-R-PDC patient-derived pancreatic adenocarcinoma cell line growth inhibition [GQUAD]
Conditions: for IC50: curve of first compound; for viability, T/C: stronger effect = lower value
Source text: DNA G-quadruplex Stabilizer Agents in Combinations in Complex Spheroids
A high-throughput screen of multi-cell type tumor spheroids was designed to identify active combinations of DNA G-quadruplex stabilizer agents and targeted small molecules. Complex spheroids include a stromal component modeled by human endothelial cells (HUVEC) and fibroblasts modeled by human mesenchymal stem cells (MSCs). The concentration ranges selected for each drug and investigational agent were based upon clinically achievable concentrations if the clinical Cmax of the agent was known.
Compounds. The drugs and investigational agents: pidnarulex (CX-5461; NSC782164), APTO-253 (NSC789042), BRACO-19 (NSC847499), peposertib (NSC802822), ceralasertib (NSC780249), elimusertib (NSC800525), camonsertib (NSC841442), AZD-1390 (NSC803789), olaparib (NSC753686), talazoparib (NSC767125), ART-558 (NSC835418), sotorasib (NSC818433), MRTX-1133 (NSC836407), SN-38 (NSC673596), topotecan (NSC609699), etoposide (NSC141540), doxorubicin (NSC123127), gemcitabine (NSC613327), 5-fluorouracil (NSC19893), paclitaxel (NSC125973), vemurafenib (NSC761431), panobinostat (NSC761190), R-306465 (JNJ-16241199; NSC773264), adavosertib (NSC754352), TP-3654 (NSC805149), carboplatin (NSC241240), KSQ-4279 (NSC840948), and staurosporine (NSC755774) were obtained from the National Cancer Institute (NCI) Developmental Therapeutics Program Chemical Repository (34). The FDA-approved anticancer drug set is available from the NCI Developmental Therapeutics Program. […] The stock solutions were prepared in dimethyl sulfoxide (DMSO, Sigma-Aldrich, St. Louis, MO, cat. D2650) at 800-fold the tested concentration and stored at -70 degrees C prior to their use. All drugs and investigational agents were tested over a range starting from a high concentration at or near the clinical Cmax and decreasing in half-log increments. If the clinical Cmax for an agent had not been determined, the highest concentration tested was 10 microM.
2.3 Cell Culture. All cells were maintained in an incubator at 37 degrees C and 5% CO2 with 95% humidity. The PDC lines were cultured according to standard operating procedures established by the NCI PDMR. All PDCs were thawed and cultured in Matrigel-coated flasks prepared with a working solution of 1X Ham's F-12 nutrient mix, without supplementation (Invitrogen, cat. 11765054), 100 U/mL penicillin-streptomycin (Invitrogen, cat. 15140122), and 2.5% Matrigel (Corning Inc., cat. 354248) for the first three passages. The 857933-349-R-J2-PDC line was cultured in 6C/Colon 1B media, which includes advanced DMEM/F-12 (Thermo Fisher Scientific, cat. 12634028), 10 mM HEPES (Thermo Fisher Scientific, cat. 15630080), 1X GlutaMAX supplement (Thermo Fisher Scientific, cat. 35050061), 0.1 mg/mL primocin (InvivoGen, cat. ant-pm-2), 10% defined fetal bovine serum, heat inactivated (HyClone Laboratories Inc., cat. SH30070.03HI), 50% L-WRN conditioned media (ATCC, cat. CRL-3276), 1.25 mM N-Acetyl-L-cysteine (Sigma-Aldrich, cat. A9165), 10 mM nicotinamide (Sigma-Aldrich, cat. N0636), 1X B-27 supplement (Thermo Fisher Scientific, cat. 17504044), 1X N-2 supplement (Thermo Fisher Scientific, cat. 17502048), 10 microM Y-27632 dihydrochloride (Tocris Bioscience, cat. 1254), and 50 ng/mL human EGF recombinant protein (Thermo Fisher Scientific, cat. PHG0311). The 485176-168-R4-J1-PDC line was cultured in Panc media, which includes all 6C/Colon 1B media components plus 100 ng/mL human FGF-10 (Thermo Fisher Scientific, cat. 100-26), 500 nM SB-431542 (Selleckchem, cat. S1067), and gastrin (Tocris, cat. 3006).
[…]

[1] = second compound 0.0316 µM, first compound 0.0316 µM
[2] = second compound 0.0316 µM, first compound 0.316 µM
[3] = second compound 0.1 µM, first compound 0.0316 µM
[4] = second compound 0.1 µM, first compound 0.316 µM
[5] = second compound 0.316 µM, first compound 0.0316 µM
[6] = second compound 0.316 µM, first compound 0.316 µM
[7] = second compound 1 µM, first compound 0.0316 µM
[8] = second compound 1 µM, first compound 0.316 µM
[9] = second compound 3.16 µM, first compound 0.0316 µM
[10] = second compound 3.16 µM, first compound 0.316 µM
[11] = second compound 10 µM, first compound 0.0316 µM
[12] = second compound 10 µM, first compound 0.316 µM
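Note: spheroids exposed to compounds for seven days.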

In the case of `O=C(NO)c1cnc(N2CCN(S(=O)(=O)c3ccc4ccccc4c3)CC2)nc1` + Cc1[nH]c2ccc(F)cc2c1-c1nc2c3cccnc3c3ncccc3c2[nH]1, the IC50 (second compound 0.0316 µM) is reported as 618 nM, the IC50 (second compound 0.1 µM) is reported as 671 nM and the IC50 (second compound 0.316 µM) is reported as 787 nM. For the same compound, the IC50 (second compound 1 µM) was 1050 nM, the IC50 (second compound 3.16 µM) was 871 nM and the IC50 (second compound 10 µM) was 858 nM. The viability, T/C [1] was 109%, the viability, T/C (second compound 0.0316 µM, first compound 0.1 µM) was 105% and the viability, T/C [2] was 87.7%. It also gave a viability, T/C (second compound 0.0316 µM, first compound 1 µM) of 23.1%, a viability, T/C (second compound 0.0316 µM, first compound 3.16 µM) of 0.14% and a viability, T/C (second compound 0.0316 µM, first compound 10 µM) of 0.17%. It also gave a viability, T/C [3] of 96.6%, a viability, T/C (second compound 0.1 µM, first compound 0.1 µM) of 103% and a viability, T/C [4] of 79.2%. The viability, T/C (second compound 0.1 µM, first compound 1 µM) was 35%, the viability, T/C (second compound 0.1 µM, first compound 3.16 µM) was 0.16% and the viability, T/C (second compound 0.1 µM, first compound 10 µM) was 0.15%. It also gave a viability, T/C [5] of 102%, a viability, T/C (second compound 0.316 µM, first compound 0.1 µM) of 94.5% and a viability, T/C [6] of 88.4%. For the same compound, the viability, T/C (second compound 0.316 µM, first compound 1 µM) was 40.5%, the viability, T/C (second compound 0.316 µM, first compound 3.16 µM) was 0.1% and the viability, T/C (second compound 0.316 µM, first compound 10 µM) was 0.12%. The viability, T/C [7] was 105%, the viability, T/C (second compound 1 µM, first compound 0.1 µM) was 107% and the viability, T/C [8] was 101%. For the same compound, the viability, T/C (second compound 1 µM, first compound 1 µM) was 52.3%, the viability, T/C (second compound 1 µM, first compound 3.16 µM) was 0.16% and the viability, T/C (second compound 1 µM, first compound 10 µM) was 0.12%. The viability, T/C [9] was 75.6%, the viability, T/C (second compound 3.16 µM, first compound 0.1 µM) was 110% and the viability, T/C [10] was 88.7%. It also gave a viability, T/C (second compound 3.16 µM, first compound 1 µM) of 44.7%, a viability, T/C (second compound 3.16 µM, first compound 3.16 µM) of 0.18% and a viability, T/C (second compound 3.16 µM, first compound 10 µM) of 0.14%. The viability, T/C [11] was 71.5%, the viability, T/C (second compound 10 µM, first compound 0.1 µM) was 95.8% and the viability, T/C [12] was 82.7%. It also gave a viability, T/C (second compound 10 µM, first compound 1 µM) of 44.9%, a viability, T/C (second compound 10 µM, first compound 3.16 µM) of 0.22% and a viability, T/C (second compound 10 µM, first compound 10 µM) of 0.17%.

In the case of `Cc1[nH]c2ccccc2c1CCNCc1ccc(/C=C/C(=O)NO)cc1` + Cc1cnc(CNC(=O)c2c(=O)c3ccc(N4CCCN(C)CC4)nc3n3c2sc2ccccc23)cn1, the IC50 (second compound 0.0316 µM) is reported as 118 nM, the IC50 (second compound 0.1 µM) is reported as 79.4 nM and the IC50 (second compound 0.316 µM) is reported as 39.5 nM. For the same compound, the IC50 (second compound 1 µM) was less than 0.999 nM, the IC50 (second compound 3.16 µM) was less than 0.999 nM and the IC50 (second compound 10 µM) was less than 0.999 nM. For the same compound, the viability, T/C (second compound 0.0316 µM, first compound 0.000999 µM) was 83.9%, the viability, T/C (second compound 0.0316 µM, first compound 0.00316 µM) was 75.8% and the viability, T/C (second compound 0.0316 µM, first compound 0.00999 µM) was 109%. The viability, T/C [1] was 82.9%, the viability, T/C (second compound 0.0316 µM, first compound 0.0999 µM) was 57.4% and the viability, T/C [2] was 6.49%. The viability, T/C (second compound 0.1 µM, first compound 0.000999 µM) was 65.4%, the viability, T/C (second compound 0.1 µM, first compound 0.00316 µM) was 81.2% and the viability, T/C (second compound 0.1 µM, first compound 0.00999 µM) was 74.7%. It also gave a viability, T/C [3] of 57%, a viability, T/C (second compound 0.1 µM, first compound 0.0999 µM) of 48.9% and a viability, T/C [4] of 5.15%. The viability, T/C (second compound 0.316 µM, first compound 0.000999 µM) was 45.5%, the viability, T/C (second compound 0.316 µM, first compound 0.00316 µM) was 54.4% and the viability, T/C (second compound 0.316 µM, first compound 0.00999 µM) was 63.1%. It also gave a viability, T/C [5] of 44.8%, a viability, T/C (second compound 0.316 µM, first compound 0.0999 µM) of 45.6% and a viability, T/C [6] of 1.86%. The viability, T/C (second compound 1 µM, first compound 0.000999 µM) was 41.3%, the viability, T/C (second compound 1 µM, first compound 0.00316 µM) was 41.8% and the viability, T/C (second compound 1 µM, first compound 0.00999 µM) was 37.3%. For the same compound, the viability, T/C [7] was 37.3%, the viability, T/C (second compound 1 µM, first compound 0.0999 µM) was 28.2% and the viability, T/C [8] was 0.15%. It also gave a viability, T/C (second compound 3.16 µM, first compound 0.000999 µM) of 33.8%, a viability, T/C (second compound 3.16 µM, first compound 0.00316 µM) of 33.3% and a viability, T/C (second compound 3.16 µM, first compound 0.00999 µM) of 35.4%. For the same compound, the viability, T/C [9] was 34.6%, the viability, T/C (second compound 3.16 µM, first compound 0.0999 µM) was 13.5% and the viability, T/C [10] was 0.12%. It also gave a viability, T/C (second compound 10 µM, first compound 0.000999 µM) of 0.27%, a viability, T/C (second compound 10 µM, first compound 0.00316 µM) of 0.26% and a viability, T/C (second compound 10 µM, first compound 0.00999 µM) of 0.28%. It also gave a viability, T/C [11] of 0.32%, a viability, T/C (second compound 10 µM, first compound 0.0999 µM) of 0.26% and a viability, T/C [12] of 0.21%.
